Assay results taken from patent US8039488B2, “Methods and compositions for inhibition of angiogenesis” (Children's Medical Center Corporation, priority 1996, dated 2011).

Experiments:
[1] = system: chick embryo chorioallantoic membrane; experiment: Chick embryo chorioallantoic membrane (CAM) assay; assay type: in vivo; details: examined 48 hours after implantation
Text: The chick embryo chorioallantoic membrane assay described by Crum et al., Science 230:1375 et seq. […] See also, U.S. Pat. No. 5,001,116, hereby incorporated by reference, which describes the CAM assay at col. 7 of the patent. Briefly, fertilized chick embryos were removed from their shell on day 3 or 4, and a methylcellulose disc containing the compound was implanted on the chorioallantoic membrane.

[2] = system: bFGF induced corneal neovascularization; experiment: Rabbit cornea angiogenesis assay; assay type: in vivo
Experimental: Pellets for implantation into rabbit corneas were made by mixing 110 μl of saline containing 12 μg of recombinant bFGF (Takeda Pharmaceuticals-Japan) with 40 mg of sucralfate (Bukh Meditec-Denmark); this suspension was added to 80 μl of 12% hydron (Interferon Sciences) in ethanol. 10 μl aliquots of this mixture was then pipetted onto Teflon pegs and allowed to dry producing approximately 17 pellets. A pellet was implanted into corneal micropockets of each eye of an anesthetized female New Zealand white rabbit, 2 mm from the limbus followed by topical application of erythromycin ointment onto the surface of the cornea. The animals were fed daily from 2 days post-implantation by gastric lavage with either drug suspended in 0.5% carboxymethyl cellulose or 0.5% carboxymethyl cellulose alone. Thalidomide was purchased from Andrulus Pharmaceutical (Maryland) and the EM-12 and Supidimide were kindly provided by Grunenthal GMBH (Germany). The animals were examined with a slit lamp every other day in a masked manner by the same corneal specialist. The area of corneal neovascularization was determined by measuring with a reticule the vessel length (L) from the limbus and the number of clock hours (C) of limbus involved. A formula was used to determine the area of a circular band segment: C/12*3.1416 [r^2−(r−L)^2] where r=6 mm the measured radius of the rabbit cornea.
Pellets containing bFGF and sucralfate were implanted into micropockets of both corneas of rabbits according to Example II. Vessel ingrowth into clear cornea from the limbus was first noted on day 2 and treatments (200 mg/kg orally) were begun on this day. The area of corneal neovascularization was measured from day 4 through day 12. Day 8 measurements were used for comparison between groups. […] Statistical analysis was performed with ANOVA with ranked data to account for interexperimental variation and to guard against a non-normal distribution of data (i.e. outliers) by utilizing a nonparametric method.

Question: For `O=C(O)CCC(C(=O)O)N1C(=O)c2ccccc2C1=O` (racemic) [Phthaloyl glutamic acid, N-phthaloyl-DL-glutamic acid], which “CAM assay result (avascular zone around the methylcellulose disc)” value [1] is on record?
Answer: avascular zone with a mild scar

Question: What about the “inhibition of angiogenesis in the rabbit cornea assay” value ([2]; 200 mg/kg) of the same compound?
Answer: 29%

Question: And the “inhibitory activity on corneal neovascularization, in words” value ([2]; 200 mg/kg orally)?
Answer: weaker inhibitory effects than thalidomide
